Article PMC8876625 (Pharmaceuticals, 2022)
Structures can show the parent of a compound that is named as a salt.

Experiments:
[1] = Fluidic permeation study (QuasiVivo QV600) with 16HBE cell barrier; format: in vitro ADME; conditions: human; fluidic cell experiment, 200 µL/min; static P12 multiplied by factor F; read-out: P16, apparent permeability between the apical and basolateral chambers in the fluidic system (converted)
Experimental: Fluidic permeation studies were performed in the MCmB QuasiVivo® […]), which was assembled according to the manufacturer's instructions. An apical and basolateral flow with a flow rate of 200 μL/min was used (Figure 7b). […] The apical circuit consisted of the apical reservoir bottle, the apical part of the pulmonary chamber, the pump, a three-way cock (B.Braun 4095111; dosing/sampling port; in order of medium flow), and connecting tubes. The basolateral circuit comprised the basolateral reservoir bottle, the basolateral part of the pulmonary chamber, a second chamber allowing the integration of additional cell tissues, the pump, the basolateral sampling port (in order of medium flow), and connecting tubes (Figure 8). Different tubing ([…]-2 Tubing set; […] VWR 228-1066, Radnor, PA, USA) was used to establish the optimal connection between the reservoir bottles, cell chambers, pump, and sampling ports. For the in vitro cell permeation studies, 4.3 × 10^4 16HBE cells were seeded in a cell culture insert with a pore size of 0.4 μm and a growth area of 0.6 cm^2 (PIHP 012 50, Merck Millipore) and cultivated at 37 °C for five days. […] After the static and fluidic permeation studies, the model substances in the apical and basolateral CCM were quantified via HPLC measurements as described in Elberskirch et al.. […]

[2] = Static permeation study with 16HBE cell monolayer on porous membrane; format: in vitro ADME, human; conditions: human; static, with 16HBE lung cell barrier, 100 µM apical, 72 h, model parameter estimate; read-out: P12, apparent permeability from the apical to the basolateral compartment and vice versa (converted)
Experimental: (§1) The bronchial cell line 16HBE was cultivated in Dulbecco's modified Eagle medium (DMEM/F12 with L-glutamine and HEPES; Gibco 11039-021, Thermo Fisher Scientific, Waltham, MA, USA), supplemented with 10% fetal bovine serum (FBS, […][…], Sigma Aldrich, St. Louis, MO, USA), 100 U/mL penicillin, and 100 μg/mL streptomycin (Gibco 15140-122, Thermo Fisher Scientific). The cells were cultivated in a humidified atmosphere at 37 °C and 5% CO2. The bronchial cell line 16HBE was obtained from Dr. […] (Cardiovascular Research Institute, University of California). […] The cells were cultivated in a 24-well plate (662160, Greiner bio-one, Frickenhausen, Germany) at 37 °C for five days under a physiological pH in the range of 7.0-7.4 with one CCM exchange after two days. […] The basolateral compartment was filled with fresh CCM. After model substance exposure, total apical, and basolateral CCM were collected each in a 1.5 mL tube ([…] Biotech GmbH & Co. […] For each time point, a separate cell culture insert was used. Samples were then stored at 4 °C until further analysis via HPLC. After the static and fluidic permeation studies, the model substances in the apical and basolateral CCM were quantified via HPLC measurements as described in […] et al.. […] The mobile phase consisted of three running agents: water (solvent A; sterile filtered 0.2 μm pore), acetonitrile (Solvent B; J.T. Baker), and 0.1% trifluoroacetic acid (TFA) in water (Solvent C; Fisher Scientific). The flow rate was set to 0.4 mL/min with 5 μL of the sample injected. […] For detection, a diode array detector (DAD) was used at a wavelength of 275 nm. To model the static in vitro permeation experiments (control and cell experiments), a bidirectional single-barrier model was implemented as a two-compartment ODE system. […] Thereby, […],i reflects the compound permeability through all present permeation barriers in the respective experimental setup, such as unstirred water layers, the porous filter membrane, and cell monolayer (apparent permeability). […] During parameter estimation in the static permeation study, permeability parameters ([…],i) were estimated by fitting the model-simulated concentrations to the observed experimental data via first-order conditional estimation method with interaction (FOCE-I) in […]®, using a combined proportional and additive residual error model (Equation (6)).

16HBE cells = test: as above; format: in vitro ADME, human; conditions: for potential metabolism in the pulmonary epithelial cells: static cellular experiments, from mass balance; for active transport in 16HBE cells: static cellular study, equilibrium with similar apical and basolateral concentrations
Experimental: as §1

[3] = Static permeation study without lung cells (control, porous membrane only); format: in vitro ADME; conditions: not told, control without lung cell barrier (porous membrane 0.4 µm, 0.6 cm^2), 100 µM apical, model parameter estimate, read-out: P12, apparent permeability from the apical to the basolateral compartment and vice versa (converted)
Experimental: The cells were cultivated in a 24-well plate (662160, Greiner bio-one, Frickenhausen, Germany) at 37 °C for five days under a physiological pH in the range of 7.0-7.4 with one CCM exchange after two days. […] The basolateral compartment was filled with fresh CCM. After model substance exposure, total apical, and basolateral CCM were collected each in a 1.5 mL tube (Kisker Biotech GmbH & Co. […] For each time point, a separate cell culture insert was used. Samples were then stored at 4 °C until further analysis via HPLC. […] After the static and fluidic permeation studies, the model substances in the apical and basolateral CCM were quantified via HPLC measurements as described in Elberskirch et al.. […] Separation was performed using a Poroshell 120 EC-C18 column (2.1 × 100 mm, 2.7 μm; 695775-902, Agilent Technologies) connected to a guard column (Poroshell 120 EC-C18, 2.1 × 5 mm, 2.7 μm, Agilent Technologies). The mobile phase consisted of three running agents: water (solvent A; sterile filtered 0.2 μm pore), acetonitrile (Solvent B; J.T. Baker), and 0.1% trifluoroacetic acid (TFA) in water (Solvent C; Fisher Scientific). The flow rate was set to 0.4 mL/min with 5 μL of the sample injected. […] For detection, a diode array detector (DAD) was used at a wavelength of 275 nm. […]

[4] = cited from earlier work
[5] = system: human bronchial epithelial cell line Calu-3; parameters: method as in earlier work; conditions: Calu-3 cells; ref 5 (Mathias et al.); cited from earlier work

Structure (SMILES) | Papp at 72 h, 100 µM [1] [×10⁻⁶ cm/s] | Papp A→B at 72 h, 100 µM [2] [×10⁻⁶ cm/s] | potential metabolism in the pulmonary epithelial cells (16HBE cells) | active transport in 16HBE cells (16HBE cells) | Papp A→B at 72 h, 100 µM [3] [×10⁻⁶ cm/s] | logP [4] | apparent permeability (published value) [5] [×10⁻⁶ cm/s]
O=C(O)Cc1ccccc1Nc1c(Cl)cccc1Cl [diclofenac, diclofenac sodium salt] | 3.92 | 23 | negligible | neither caffeine nor diclofenac were subject to active transport | 41.8 | ~ 4 | 
Cn1c(=O)c2c(ncn2C)n(C)c1=O [caffeine] | 14.9 | 43.7 | negligible | neither caffeine nor diclofenac were subject to active transport | 54.5 |  | 21.8
